Results as given in US6491922B1, “Methods and compounds for treating autoimmune and vascular disease” (Cornell Research Foundation, Inc., priority 1996, dated 2002).

What was measured:
[1] = tested on: human umbilical vein endothelial cells; assay: Competition for LPG binding by LPG fragments (FACS); details: for competition with intact LPG for binding to endothelial cells: fragment 10 μM prior to intact LPG 1 μM; for Percent Inhibition: pretreatment with fragment 10 μM 15 min before intact LPG 1 μM, 15 min, 37° C., means ± SE of 3 experiments
Description: To address whether the lyso-PI and core-PI fragments may mediate cell binding, an indirect approach was used. Endothelial cells (10^6/ml) obtained by mild collagenase treatment were first incubated with either lyso-PI or core-PI (10 μM, 15 min 37° C.) prior to the addition of intact LPG (1 μM, 15 min 37° C.); PGM and PG (10 μM, 15 min 37° C.) were used as controls. Cells were washed, after incubation with anti-LPG mAb as described above (Indirect Immunofluorescence) and subjected to FACS analysis by binding of the intact LPG.

endothelial cells [2] = assay: Endothelial adhesion to monocytes (MM6) assay; details: for inhibition of endotoxin-mediated endothelial adhesion to monocytes by LPG fragments: fragments 1-10 μM (2 μM, 1 h in FIG. 21), endotoxin 10 ng/ml 4 h
Description: Endothelial cell were isolated from human umbilical veins by an established method as described. […] In all experiments, 2-4 passages of subcultured endothelial cells were used and were grown on fibronectin-precoated 96-well plates for 2-3 days prior to use.
On the day of the experiment, endothelial cells were treated with endotoxin (E. coli, J5, 10 ng/ml) for 4 h. MM6 (1×10^5 cells) were subsequently added to the endotoxin-stimulated endothelial cells. Monocyte adhesion was performed for 20 min at 37° C. Unbound MM6 cells were removed by washing (3×). Adhesion of MM6 onto endothelium was quantitated by counting the bound MM6 cells under a microscope. […] The values of triplicates were averaged, and variations between triplicates were <5%. […] For experiments to examine if LPG could inhibit endotoxin-mediated monocyte adhesion, the endothelial cells were first preincubated with LPG (2 μM) for 1-2 h at 37° C. prior to the addition of endotoxin.

endothelial cells [3] = assay: ^3H-lyso-PI binding to endothelial cells; set-up: species or system human; details: 1 μM, 45 min, 25° C.; 10^6 cells per ml
Description: To evaluate whether lyso-PI may directly bind to endothelial cells, endothelial cells (10^6 per ml) were incubated with ^3H-lyso-PI (1 μM [specific activity, ˜10,000 cpm/nmole], 45 min, 25° C.). As a control, endothelial cells were pretreated with LPG (20 μM, 15 min, 25° C.) before the incubation with ^3H-lyso-PI. Following incubation, the cell suspension was layed onto silicone oil (Silicones FC-50, General Electric, Waterford, N.Y.) and cell-bound ^3H-lyso-PI was separated from free-^3H-lyso-PI by centrifugation (10,000 g, 10 min, room temperature). The amount of ^3H-lyso-PI in the cell pellet and in the supernatant were solubilized in Ecoscint (National Diagnostics, Highland Park, N.J.) and quantitated by a β-emission counter (Beckman Instruments, Palo Alto, Calif.).

Substance	competition with intact LPG for binding to endothelial cells [1] [%]	Percent Inhibition [1] [%]	inhibition of endotoxin-mediated endothelial adhesion to monocytes by LPG fragments (endothelial cells [2])	inhibitory effect of co-addition of fragments (endothelial cells [2]; co-addition of PG (2 μM) and core-PI (2 μM))	^3H-lyso-PI bound, of the total input ^3H-lyso-PI (endothelial cells [3]) [%]
lyso-alkyl-phosphatidylinositol [lyso-PI]	~30	29.9 ± 6.0	did not inhibit	–	–
phosphosaccharide core-lyso-alkyl-phosphatidylinositol [core-PI]	~30	32.0 ± 5.0	did not inhibit	No additive inhibitory effect	–
^3H-Lyso-alkyl-PI [^3H-lyso-PI, reference compound]	–	–	–	–	32.2±3.1
